Where two headings read alike, the source gives them in different places.
How the values were obtained:
VM46 colon carcinoma = conditions: for Complete Response / Partial Response / Stable Disease / Survivors: Day 64
Protocol: Dosing was initiated on Day 1. […] Taxotere was given i.v. at a dose of 70 mg/kg on a qd x 1 schedule.

HCT116 = experiment: In Vitro cytotoxicity measured by the cell colony formation assay; format: cell-based, human; conditions: Homo sapiens, HCT-116; read-out: IN VITRO ID 50 HCT116
Outline: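 Four hundred cells per dish in McCoy's 5a medium with 10% FBS were allowed to attach for 5 h at 37 °C. They were then exposed to compound for 72 h at 37 °C, added as a 10× stock made fresh in medium. After HBSS rinsing and refeeding, colonies were counted after 7 days.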

A375 melanoma = conditions: for survival extension compared to Group 1 controls: i.v. qd x 1; for MDS (n): mean days of survival until neoplasm reached 2.0 g, terminated Day 60; for MDS (n) / Toxic Deaths / Complete Response / Partial Response / Stable Disease / Survivors / Mean Score: i.v. qd x 1 at estimated MTD (Taxol 24 mg/kg, Taxotere 70 mg/kg), 6 mice/group (Taxotere 7); for Toxic Deaths / Complete Response / Partial Response / Stable Disease / Survivors: number of mice; for Complete Response / Partial Response / Stable Disease / Survivors: Day 60; for Mean Score: tumor scoring system
Protocol: Dosing was initiated on Day 1. […] Taxotere was given i.v. on a qd x 1 schedule at a dose of 70 mg/kg. […] The study was terminated on Day 60. Treatment groups are detailed in Table 9.

A2780 ovarian carcinoma = test system: A2780 ovarian carcinoma
Protocol: Dosing was initiated on Day 1. […] Taxotere was given i.v. on a qd x 1 schedule at a dose of 70 mg/kg. […] The study was terminated on Day 60. Treatment groups are detailed in Table 7.

[1] = test system: Panc-1 pancreatic carcinoma; experiment: In vivo evaluation against Panc-1 human pancreatic carcinoma (Example 17); conditions: for MDS: i.v. qd x 1 (compounds estimated MTD; Taxol 36 mg/kg split), days until tumor 1.5 g, ended Day 60; for MDS (n): mean days of survival until neoplasm reached 1.5 g, terminated Day 60; for Mean Score: tumor scoring system
Protocol: The dosing volume was 0.3 ml per 20 g mouse.
Female NCr-nude mice were implanted subcutaneously with 1 mm^3 Panc-1 pancreatic carcinoma fragments in the flank and sorted into treatment groups of six mice each. […] Dosing was initiated on Day 1. The antitumor compounds were given i.v. at an estimated maximum tolerated dose (MTD) appropriate for each agent on a qd x 1 schedule (single administration of compound). […] The vehicle was administered i.v. to control mice in Group 1 on the qd x 1 schedule. The study was terminated on Day 60.
The mean days of survival is the number of days after which a neoplasm reached a size of 1.5 g and the animal was euthanized. A complete response is obtained if the tumor shrinks to a size smaller than its size on Day 1 of the study.

MX-1 carcinoma = test system: MX-1 carcinoma
Protocol: Thirteen antitumor compounds were formulated for an i.v. dosing regime (single i.v. bolus, qd x 1 schedule) prepared in the following vehicle: 5% ethanol, 5% Cremophor and 90% isotonic saline.
(§1) The antitumor compounds were given intravenously in a single maximum tolerated dose (MTD) appropriate for each compound. […] The MTDs for the antitumor compounds were calculated from earlier single dose data for mice receiving i.v. administration of these compounds. All vehicle control animals in the split dosing regimes were dosed twice intravenously with half the total volume being given separated by one hour. The study was terminated on Day 60.
A complete response is obtained if the tumor is not palpable at the end of the study. […]

HCT116 carcinoma = test system: HCT116 carcinoma
Protocol: Antitumor compounds were formulated for an i.v. dosing regime and were prepared in the following vehicle: 5% ethanol, 5% Cremophor and 90% isotonic saline.
as §1, with “half of” for “half”
A complete response is obtained if the tumor is not palpable at the end of the study.

DU145 prostate carcinoma = conditions: for Toxic Deaths: i.v. qd x 1 at estimated MTD (Taxol 24 mg/kg as two split doses)
Description: Dosing was initiated on Day 1. […] Treatment groups are detailed in Table 5.

[2] = number of mice, i.v. qd x 1, mg/kg: Taxol 24, 0499 77, 0503 72.6, 0670 123.1, 0706 107.6, 0838 72.6, 0854 46.6, 0983 67.4, Taxotere 70, 6 mice/group
[3] = number of mice, i.v. qd x 1 at estimated MTD (Taxol 24 mg/kg, Taxotere 70 mg/kg, 0983 72.6 mg/kg), 5 mice/group (Taxotere 6), Day 60
[4] = Panc-1 (Example 17), i.v. qd x 1, six mice per group
[5] = i.v. qd x 1, mg/kg: Taxol 36, 0499 77, 0503 72.6, 0670 123.1, 0706 107.6, 0838 72.6, 0854 76.9, 6 mice/group
[6] = number of mice, i.v. qd x 1, mg/kg: Taxol 36, 0499 77, 0503 72.6, 0670 123.1, 0706 107.6, 0838 72.6, 0854 76.9, 6 mice/group
[7] = number of mice, i.v. qd x 1, mg/kg: Taxol 36, 0499 77, 0503 72.6, 0670 123.1, 0706 107.6, 0838 72.6, 0854 76.9, 6 mice/group, Day 60
[8] = number of 5 mice, i.v. qd x 1 at estimated MTD (Taxol 24 mg/kg split), Day 91

CC(=O)O[C@@]12CO[C@@H]1C[C@H](O)[C@@]1(C)C(=O)[C@H](O)C3=C(C)[C@@H](OC(=O)[C@H](O)[C@@H](NC(=O)OC(C)(C)C)c4ccccc4)C[C@@](O)([C@@H](OC(=O)c4ccccc4)[C@H]21)C3(C)C [Taxotere, docetaxel, reference compound]
MDS (VM46 colon carcinoma; VM46, i.v. qd x 1 (Taxol 24 mg/kg split; Taxotere 70 mg/kg), days until tumor 1.5 g): 45.3 days | MDS (n) (VM46 colon carcinoma; mean days of survival until neoplasm reached 1.5 g, i.v. qd x 1, mg/kg: Taxol 24, 0499 77, 0503 72.6, 0670 123.1, 0706 107.6, 0838 72.6, 0854 46.6, 0983 67.4, Taxotere 70, 6 mice/group, terminated Day 64): 45.3 ± 3.6 (6) days | Toxic Deaths (VM46 colon carcinoma; [2]): 0 | Complete Response (VM46 colon carcinoma; [2]): 0 | Partial Response (VM46 colon carcinoma; [2]): 0 | Stable Disease (VM46 colon carcinoma; [2]): 0 | Survivors (VM46 colon carcinoma; [2]): 0 | Mean Score (VM46 colon carcinoma; tumor scoring system, i.v. qd x 1, mg/kg: Taxol 24, 0499 77, 0503 72.6, 0670 123.1, 0706 107.6, 0838 72.6, 0854 46.6, 0983 67.4, Taxotere 70, 6 mice/group): 2 ± 0 | IC50 (HCT116): 600 pM | survival extension compared to Group 1 controls (A375 melanoma; A375): 49% | MDS (A375 melanoma; A375, i.v. qd x 1 (Taxol 24 mg/kg split; Taxotere 70 mg/kg), days until tumor 2.0 g, ended Day 60): 21.5 days | MDS (n) (A375 melanoma): 21.5 ± 0.5 (7) days | Toxic Deaths (A375 melanoma): 0 | Complete Response (A375 melanoma): 0 | Partial Response (A375 melanoma): 0 | Stable Disease (A375 melanoma): 0 | Survivors (A375 melanoma): 0 | Mean Score (A375 melanoma): 2 ± 0 | antitumor activity (A2780 ovarian carcinoma; A2780, i.v. qd x 1): more active than Taxol | survival extension compared to Group 1 controls (A2780 ovarian carcinoma; A2780, i.v. qd x 1): 134% | MDS (A2780 ovarian carcinoma; A2780, i.v. qd x 1 (compounds estimated MTD; Taxol 24 mg/kg split; Taxotere 70 mg/kg), days until tumor 2.0 g, ended Day 60): 27.4 days | MDS (n) (A2780 ovarian carcinoma; mean days of survival until neoplasm reached 2.0 g, i.v. qd x 1 at estimated MTD (Taxol 24 mg/kg, Taxotere 70 mg/kg, 0983 72.6 mg/kg), 5 mice/group (Taxotere 6), terminated Day 60): 27.4 ± 3.5 (6) days | Toxic Deaths (A2780 ovarian carcinoma; number of mice, i.v. qd x 1 at estimated MTD (Taxol 24 mg/kg, Taxotere 70 mg/kg, 0983 72.6 mg/kg), 5 mice/group (Taxotere 6)): 0 | Complete Response (A2780 ovarian carcinoma; [3]): 0 | Partial Respons (A2780 ovarian carcinoma; [3]): 0 | Stable Disease (A2780 ovarian carcinoma; [3]): 0 | Survivors (A2780 ovarian carcinoma; [3]): 0 | Mean Score (A2780 ovarian carcinoma; tumor scoring system, i.v. qd x 1 at estimated MTD (Taxol 24 mg/kg, Taxotere 70 mg/kg, 0983 72.6 mg/kg), 5 mice/group (Taxotere 6)): 2.5 ± 0.3

CCC(=O)O[C@H]1C(=O)[C@@]2(C)[C@H]([C@H](OC(=O)c3ccccc3)[C@]3(O)C[C@H](OC(=O)[C@H](O)[C@@H](NC(=O)c4ccccc4)c4ccoc4)C(C)=C1C3(C)C)[C@]1(OC(C)=O)CO[C@@H]1C[C@@H]2O [Compound 0670]
MDS ([1]; Panc-1 (Example 17)): 47 to 56 days | Toxic Deaths [1, 4]: One | MDS (n) [1, 5]: 51.2 ± 5.9 (2) days | Toxic Deaths [1, 6]: 1 | Complete Response [1, 7]: 1 | Partial Response [1, 7]: 0 | Stable Disease [1, 7]: 2 | Mean Score [1, 5]: 4.2 ± 1.7 | Partial Response (MX-1 carcinoma; iv): 1 | Complete Response (MX-1 carcinoma; iv, 1440 h): 1 | MDS (n) (MX-1 carcinoma; iv, 1440 h): 28.5 ± 6.1 (4) days | Mean Score (MX-1 carcinoma; iv, 1440 h): 4.3 ± 1.6 | Stable Disease (MX-1 carcinoma; iv, 1440 h): 0 | Survivors (MX-1 carcinoma; number of 6 mice, i.v. qd x 1 at MTD, Day 60, doses as in E17): 2 | Toxic Deaths (MX-1 carcinoma; number of 6 mice, i.v. qd x 1 at MTD, Day 60, mg/kg: Taxol 36 (split dose), 0503 72.6, 0536 49, 0663 159, 0670 123, 0687 159, 0706 108, 0908 159, 0947 76.9, 0951 72.6, 0983 67.4, 0999 49, 1003 49, 1011 108): 0 | Partial Response (HCT116 carcinoma; iv): 1 | Complete Response (HCT116 carcinoma; iv, 1440 h): 2 | MDS (n) (HCT116 carcinoma; iv, 1440 h): 29.8 ± 0.7 (2) days | Mean Score (HCT116 carcinoma; iv, 1440 h): 6.6 ± 1.9 | Stable Disease (HCT116 carcinoma; iv, 1440 h): 0 | Survivors (HCT116 carcinoma; number of 5 mice, i.v. qd x 1 at MTD, Day 60, doses as in E3): 3 | Toxic Deaths (HCT116 carcinoma; number of 5 mice, i.v. qd x 1 at MTD, Day 60, mg/kg: Taxol 36 (split doses), 0503 72.6, 0536 49, 0663 159, 0670 123, 0687 159, 0706 108, 0908 159, 0947 76.9, 0951 72.6, 0983 72.6, 0999 49, 1003 49, 1011 108): 0 | response rate (VM46 colon carcinoma; VM46, i.v. qd x 1 at estimated MTD): 16.7-40% | Mean Score (VM46 colon carcinoma; iv): 2.8 ± 1.2 | MDS (n) (VM46 colon carcinoma; iv, 1536 h): 40.1 ± 5.8 (5) days | Toxic Deaths (VM46 colon carcinoma; [2]): 0 | Complete Response (VM46 colon carcinoma; [2]): 0 | Partial Response (VM46 colon carcinoma; [2]): 1 | Stable Disease (VM46 colon carcinoma; [2]): 0 | Survivors (VM46 colon carcinoma; [2]): 1 | total response rate (DU145 prostate carcinoma; iv): 20-50% | Toxic Deaths (DU145 prostate carcinoma; number of 5 mice, Day 91): 0 | Survivors (DU145 prostate carcinoma; [8]): 4 | IC50 (HCT116): < 1000 pM | Toxic Deaths (A375 melanoma): 0 | Survivors (A375 melanoma): 0

CC(=O)O[C@@]12CO[C@@H]1C[C@H](O)[C@@]1(C)C(=O)[C@H](OC(=O)C3CC3)C3=C(C)[C@@H](OC(=O)[C@H](O)[C@H](C=C(C)C)NC(=O)OC(C)(C)C)C[C@@](O)([C@@H](OC(=O)c4ccccc4)[C@H]21)C3(C)C [Compound 0838]
MDS ([1]; Panc-1 (Example 17)): 47 to 56 days | Toxic Deaths [1, 4]: One | MDS (n) [1, 5]: 54.2 ± 0.9 (2) days | Toxic Deaths [1, 6]: 1 | Complete Response [1, 7]: 0 | Partial Response [1, 7]: 2 | Stable Disease [1, 7]: 3 | Survivors [1, 7]: 3 | Mean Score [1, 5]: 3.6 ± 1.1 | Toxic Deaths (VM46 colon carcinoma; VM46, i.v. qd x 1, six mice per group): no toxic deaths | Toxic Deaths (VM46 colon carcinoma; [2]): 0 | Complete Response (VM46 colon carcinoma; [2]): 0 | Partial Response (VM46 colon carcinoma; [2]): 1 | Stable Disease (VM46 colon carcinoma; [2]): 3 | Survivors (VM46 colon carcinoma; [2]): 4 | antitumor activity (DU145 prostate carcinoma; DU145, i.v. qd x 1): active | complete responses (DU145 prostate carcinoma; DU145, i.v. qd x 1, five mice per group): 2 | Mean Score (DU145 prostate carcinoma; i.v. qd x 1 at estimated MTD (Taxol 24 mg/kg split), 5 mice/group, Day 91): 7 ± 1.5 | Stable Disease (DU145 prostate carcinoma; number of 5 mice, tumor did not reach 1.5 g by end of study, i.v. qd x 1 at estimated MTD (Taxol 24 mg/kg split), Day 91): 1 | Toxic Deaths (DU145 prostate carcinoma; number of 5 mice, Day 91): 0 | Complete Response (DU145 prostate carcinoma; [8]): 2 | Partial Response (DU145 prostate carcinoma; [8]): 1 | Survivors (DU145 prostate carcinoma; [8]): 4 | survival extension compared to Group 1 controls (A375 melanoma; A375): 133% | MDS (n) (A375 melanoma): 33.5 ± 3.4 (5) days | Toxic Deaths (A375 melanoma): 0 | Complete Response (A375 melanoma): 1 | Partial Response (A375 melanoma): 0 | Stable Disease (A375 melanoma): 0 | Survivors (A375 melanoma): 1 | Mean Score (A375 melanoma): 3.8 ± 1.2
